Type in all cases: cell-based, human
The test system of data set [1] is hCASMCs. The data set is described as follows: Gene expression assay (TaqMan real-time PCR) in hCASMCs. The method, then:
FIG. 32 depicts graphs of the effects of PPAR agonists on gene expressions in hCASMCs. HCASMCs were maintained under the same condition with FIG. 23A-23C. Next day after cell seeding, medium was changed to 1% FCS DMEM. After 24 hours, hCASMCs were stimulated by 100 nM K-877 (K877), 100 nM GW-501516 (GW) and 100 nM rosiglitazone (Rosi). After 18 hours, the mRNA samples were isolated by TRIzol Reagent.
FIGS. 33A-33D depict the effects of CROT silencing on CDNK1A (FIG. 33A), DUSP1 (FIG. 33B), HMOX1 (FIG. 33C) and SAT1 (FIG. 33D) gene expression in hCASMCs. HCASMCs were maintained under the same condition with FIGS. 23A-23C. The mRNA samples from hCASMCs were isolated using TRIzol Reagent on Day 7. *: P<0.05, **: P<0.01 (vs. NM-siCont or OM-siCont, Student's t-test, N=3).
HCASMCs were maintained under the same condition with FIGS. 23A-23C. BMP7 was not detected. The mRNA samples from hCASMCs were isolated using TRIzol Reagent on Day 7. *: P<0.05 (vs. OM-siCont, Student's t-test, N=3).
FIG. 35 depicts the effects of PPAR agonists GW-501516 on SLC20A1 gene expression in hCASMCs. HCASMCs were maintained under the same condition with FIGS. 23A-23C. HCASMCs were stimulated by 100 nM GW-501516 (GW). After 18 hours, the mRNA samples were isolated by TRIzol Reagent. **: P<0.01, (vs. Control, Student's t-test, N=3).
RNA preparation and real-time PCR. Total RNA from the cell culture was isolated using TRIZol (Life Technologies). Reverse transcription was performed using the QuantiTect Reverse Transcription Kit (Qiagen). The mRNA expression was determined by TaqMan-based real-time PCR reactions (Life Technologies). The following TaqMan probes were used: 4326315E (human β-actin), (human SLC20A1), (human BMP2), (human BMP4), (human BMP7). The expression levels were normalized to β-actin. Results were calculated using the […] method, and presented as fold increase relative to control.

Data set [2] concerns hCASMCs. As to the kind of experiment: Mineralization assay (Alizarin Red staining, calcium deposition). The conditions noted are these: hCASMCs in osteogenic medium with siRNA, Day 21. As for the experimental part: (§1) FIGS. 22A-22C depict the effects of the SORT1, AASS, CROT, IL1R1, ITGBL1, METTL7A and NNMT silencing on calcium deposition and TNAP activity in hCASMCs. HCASMCs were treated with siRNAs in NM. After 3 days, the medium was changed to OM with the siRNA. On Day 21, cells were fixed in 4% formalin for 10 min and washed twice with PBS for Alizarin Red staining. The cells were stained with 2% Alizarin Red solution for 20 min at RT and rinsed twice with water (FIG. 22A). Then, the Alizarin Red was extracted by 10 mM cetylpyridinium chloride and the extracts were measured on the absorbance (540 nm) (FIG. 22B). On Day 14, TNAP activity was determined using Alkaline Phosphatase Activity Colorimetric Assay Kit (FIG. 22C).
FIGS. 23A-23C depict teffects of the CROT silencing on calcium deposition and TNAP activity in hCASMCs. HCASMCs were treated with siRNAs in NM. […] Then, the Alizarin Red was extracted by 10 mM cetylpyridinium chloride and the extracts were measured on the absorbance (540 nm) (FIG. 23B). On Day 14, TNAP activity was determined using Alkaline Phosphatase Activity Colorimetric Assay Kit (FIG. 23C). **: P<0.01, ***: P <0.001 (vs. OM-siControl, Student's t-test, N=3-4). […]
Mineralization assay and activity of tissue non-specific alkaline phosphatase. Mineralized matrix formation was assessed by Alizarin Red staining. […] Aliquots were taken and measured with a spectrophotometer at 540 nm.

The next data set has as its system TNAP activity in hCASMCs. The data set is described as follows: Tissue non-specific alkaline phosphatase (TNAP) activity in cell cultures. The settings on record: hCASMCs in osteogenic medium with siRNA; Day 14. As for the experimental part: as §1
FIGS. 23A-23C depict teffects of the CROT silencing on calcium deposition and TNAP activity in hCASMCs. HCASMCs were treated with siRNAs in NM. After 3 days, the medium was changed to OM with the siRNA. […] Then, the Alizarin Red was extracted by 10 mM cetylpyridinium chloride and the extracts were measured on the absorbance (540 nm) (FIG. 23B). On Day 14, TNAP activity was determined using Alkaline Phosphatase Activity Colorimetric Assay Kit (FIG. 23C). **: P<0.01, ***: P <0.001 (vs. OM-siControl, Student's t-test, N=3-4). […]
Tissue non-specific alkaline phosphatase (TNAP) activity was measured in cell cultures using the Alkaline Phosphatase Activity Colorimetric Assay Kit (BioVision). […]

Entries after “also recorded” stand apart in the source; their conditions may differ.

Take `Cc1cc(SCc2sc(-c3ccc(C(F)(F)F)cc3)nc2C)ccc1OCC(=O)O` [PPARδ agonist, GW-501516]: in the data set on hCASMCs [1] (PPARδ agonist, after 24 h), the SLC20A1 gene expression result was “suppressed; also recorded: reduced”. Moreover, in the data set on hCASMCs [1] (response to PPARδ agonist), the CDKN1A gene expression entry is given as “affected”, the DUSP1 gene expression entry was “affected”, the HMOX1 gene expression result is “affected” and the SAT1 gene expression result is “affected”.
For the compound “siCROT: siRNA silencing CROT; patent names inhibitory nucleic acid CACUUCAGCUGGCCUAUUA (SEQ ID NO: 1) as CROT inhibitor (listed as RNA, chemistry not given here)”, the Ca deposition entry in the data set on hCASMCs [2] is “decreased”. Moreover, the TNAP activity result with TNAP activity in hCASMCs was “decreased”. Besides, the HMOX1 expression entry with hCASMCs [1] (CROT siRNA, Day 7) is given as “induced”.

(Values after patent US20200149049A1, “METHODS AND COMPOSITIONS RELATING TO ANTI-CALCIFICATION” (THE BRIGHAM AND WOMEN'S HOSPITAL, INC., priority 2017, published 2020).)
